Test results reported in ChEMBL document CHEMBL1149059, “Biological activity of some coumarins from Sri Lankan Rutaceae” (J Nat Prod, 1994).
In brackets after ≈: the same amount, converted by molar mass.

Tests used:
Saccharomyces cerevisiae [1] = assay: DNA damaging activity against DNA repair-deficient yeast rad 6 assessed as drug level required to produce 12 mm zone of inhibition; type: functional
Saccharomyces cerevisiae [2] = assay: DNA damaging activity against DNA repair-proficient yeast RAD+ assessed as drug level required to produce 12 mm zone of inhibition; type: functional
Saccharomyces cerevisiae [3] = assay: DNA damaging activity against DNA repair-deficient yeast rad 52Y assessed as drug level required to produce 12 mm zone of inhibition; type: functional
Vero = assay: Cytotoxicity against african green monkey Vero cells after 7 days by XTT assay; type: cell-based; details: Chlorocebus sabaeus, 168 h
Saccharomyces cerevisiae [4] = assay: DNA damaging activity against DNA repair-deficient yeast rad 52 assessed as drug level required to produce 12 mm zone of inhibition; type: functional

SMILES | IC12 (Saccharomyces cerevisiae [1]) | IC12 (Saccharomyces cerevisiae [2]) | IC12 (Saccharomyces cerevisiae [3]) | IC50 (Vero) | IC12 (Saccharomyces cerevisiae [4])
CC1(C)C=Cc2cc3ccc(=O)oc3cc2O1 [XANTHYLETIN] | 318 µg/mL | 21 µg/mL | 87 µg/mL | > 20 mg/L | 52 µg/mL
CC1(C)C=Cc2c(ccc3ccc(=O)oc23)O1 [SESALIN] | 480 µg/mL | 220 µg/mL | 87 µg/mL | 12 mg/L (≈ 52.6 µM) | 33 µg/mL
CC[C@@]1(O)C(=O)OCc2c1cc1n(c2=O)Cc2cc3ccccc3nc2-1 [CAMPTOTHECIN] | 8.7 µg/mL | 110 µg/mL | – | 0.02 mg/L (≈ 0.0574 µM) | 0.6 µg/mL
